Measurements taken from US9738612B2, “Methylacryloyl benzimidazolone derivative and anti-tumour use thereof” (SHANGHAI NATURE STANDARD R&D AND BIOTECH CO., LTD, priority 2014, dated 2017).

What was measured:
Experiment in all cases: Tumor-associated kinase inhibition test
Type in all cases: biochemical
[1] = target: T1, PI3Kinase(p110δ/p85α)(h) (Homo sapiens, UniProt O00329); conditions: read-out: Inhibitory rate (%)
T1 construct: purchased Eurofins Pharma Discovery Services UK Limited (contract assay)
Text: (§1) Eurofins Pharma Discovery Services UK Limited completed and reported this experiment.

[2] = target: T2, CDK7/cyclinH/MAT1(h) (Homo sapiens, UniProt P50613); conditions: read-out: Inhibitory rate (%)
T2 construct: purchased Eurofins Pharma Discovery Services UK Limited (contract assay service)
Text: as §1

[3] = target: T3, mTOR(h) (Homo sapiens, UniProt P42345)
T3 construct: purchased Eurofins Pharma Discovery Services UK Limited (contract assay)
Text: as §1

[4] = target: T4, PI3Kinase(p110α/p85α)(h) (Homo sapiens, UniProt P42336); conditions: read-out: Inhibitory rate (%)
T4 construct: purchased Eurofins Pharma Discovery Services UK Limited (contract assay)
Text: as §1

[5] = target: T5, Rsk3(h) (Homo sapiens, UniProt Q15349); conditions: read-out: Inhibitory rate (%)
T5 construct: purchased Eurofins Pharma Discovery Services UK Limited
Text: as §1

[6] = target: T6, CDK6/cyclinD3(h) (Homo sapiens, UniProt Q00534); conditions: read-out: Inhibitory rate (%)
T6 construct: purchased Eurofins Pharma Discovery Services UK Limited (contract assay service)
Text: as §1

[7] = target: T7, cSRC(h) (Homo sapiens, UniProt P12931); conditions: read-out: Inhibitory rate (%)
T7 construct: purchased Eurofins Pharma Discovery Services UK Limited (contract testing)
Text: as §1

[8] = target: T8, Flt3(h) (Homo sapiens, UniProt P36888); conditions: read-out: Inhibitory rate (%)
T8 construct: purchased Eurofins Pharma Discovery Services UK Limited (contract testing)
Text: as §1

[9] = target: T9, EphB2(h) (Homo sapiens, UniProt P29323); conditions: read-out: Inhibitory rate (%)
T9 construct: purchased Eurofins Pharma Discovery Services UK Limited (contract testing)
Text: as §1

[10] = target: T10, GSK3β(h) (Homo sapiens, UniProt P49841); conditions: read-out: Inhibitory rate (%)
T10 construct: purchased Eurofins Pharma Discovery Services UK Limited (contract testing)
T10 sequence (P49841 whole entry): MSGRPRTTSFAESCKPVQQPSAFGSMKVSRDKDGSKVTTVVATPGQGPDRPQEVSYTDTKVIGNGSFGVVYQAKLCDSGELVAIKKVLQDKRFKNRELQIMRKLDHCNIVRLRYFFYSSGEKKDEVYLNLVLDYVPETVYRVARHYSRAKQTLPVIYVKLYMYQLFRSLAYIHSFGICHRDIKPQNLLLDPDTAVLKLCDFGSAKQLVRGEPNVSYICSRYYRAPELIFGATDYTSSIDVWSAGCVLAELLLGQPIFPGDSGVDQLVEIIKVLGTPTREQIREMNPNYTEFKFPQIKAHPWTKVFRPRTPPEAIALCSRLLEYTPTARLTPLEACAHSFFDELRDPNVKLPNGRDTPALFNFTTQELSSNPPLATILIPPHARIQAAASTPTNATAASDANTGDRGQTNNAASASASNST
Text: as §1

[11] = target: T11, MKK6(h) (Homo sapiens, UniProt P52564); conditions: read-out: Inhibitory rate (%)
T11 construct: purchased Eurofins Pharma Discovery Services UK Limited
Text: as §1

[12] = target: T12, Rsk1(h) (Homo sapiens, UniProt Q15418); conditions: read-out: Inhibitory rate (%)
T12 construct: purchased Eurofins Pharma Discovery Services UK Limited
T12 sequence (Q15418 whole entry): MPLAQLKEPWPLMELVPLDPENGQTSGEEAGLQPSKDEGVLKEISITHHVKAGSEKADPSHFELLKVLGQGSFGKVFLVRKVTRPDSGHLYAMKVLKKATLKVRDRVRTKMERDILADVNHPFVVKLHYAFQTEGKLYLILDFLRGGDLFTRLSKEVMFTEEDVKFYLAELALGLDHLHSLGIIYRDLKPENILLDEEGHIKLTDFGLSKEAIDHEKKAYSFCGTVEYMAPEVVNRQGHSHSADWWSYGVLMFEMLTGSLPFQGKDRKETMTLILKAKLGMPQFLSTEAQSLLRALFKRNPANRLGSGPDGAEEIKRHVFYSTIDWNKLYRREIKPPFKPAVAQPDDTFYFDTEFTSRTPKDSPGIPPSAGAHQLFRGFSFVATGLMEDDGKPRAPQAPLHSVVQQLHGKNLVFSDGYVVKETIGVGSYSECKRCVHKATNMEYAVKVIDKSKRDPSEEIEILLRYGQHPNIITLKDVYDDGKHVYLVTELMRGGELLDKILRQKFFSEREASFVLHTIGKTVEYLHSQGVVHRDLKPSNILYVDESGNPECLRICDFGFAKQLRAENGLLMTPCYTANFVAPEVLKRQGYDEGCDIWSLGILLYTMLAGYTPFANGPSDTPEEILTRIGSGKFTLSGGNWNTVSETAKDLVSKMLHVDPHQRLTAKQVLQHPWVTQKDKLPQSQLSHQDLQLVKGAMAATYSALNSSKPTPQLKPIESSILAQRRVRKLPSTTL
Text: as §1

[13] = target: T13, Fms(h) (Homo sapiens, UniProt P07333); conditions: read-out: Inhibitory rate (%)
T13 construct: purchased Eurofins Pharma Discovery Services UK Limited (contract testing)
Text: as §1

[14] = target: T14, EphB4(h) (Homo sapiens, UniProt P54760); conditions: read-out: Inhibitory rate (%)
T14 construct: purchased Eurofins Pharma Discovery Services UK Limited (contract testing)
Text: as §1

[15] = target: T15, PI3KC2γ(h) (Homo sapiens, UniProt O75747); conditions: read-out: Inhibitory rate (%)
T15 construct: purchased Eurofins Pharma Discovery Services UK Limited (contract assay)
Text: as §1

[16] = target: T16, Met(h) (Homo sapiens, UniProt P08581); conditions: read-out: Inhibitory rate (%)
T16 construct: purchased Eurofins Pharma Discovery Services UK Limited
Text: as §1

[17] = target: T17, IRAK1(h) (Homo sapiens, UniProt P51617); conditions: read-out: Inhibitory rate (%)
T17 construct: purchased Eurofins Pharma Discovery Services UK Limited (contract testing)
Text: as §1

[18] = target: T18, CHK2(h) (Homo sapiens, UniProt O96017); conditions: read-out: Inhibitory rate (%)
T18 construct: purchased Eurofins Pharma Discovery Services UK Limited (contract assay service)
Text: as §1

[19] = target: T19, PI3Kinase(p110α(E542K)/p85α)(h) (Homo sapiens, UniProt P42336, E542K); conditions: read-out: Inhibitory rate (%)
T19 construct: purchased Eurofins Pharma Discovery Services UK Limited (contract assay)
Text: as §1

[20] = target: T20, Plk1(h) (Homo sapiens, UniProt P53350); conditions: read-out: Inhibitory rate (%)
T20 construct: purchased Eurofins Pharma Discovery Services UK Limited
Text: as §1

[21] = target: T21, PKCβII(h) (Homo sapiens, UniProt P05771); conditions: read-out: Inhibitory rate (%)
T21 construct: purchased Eurofins Pharma Discovery Services UK Limited
T21 sequence (P05771 1-673 isoform P05771-2): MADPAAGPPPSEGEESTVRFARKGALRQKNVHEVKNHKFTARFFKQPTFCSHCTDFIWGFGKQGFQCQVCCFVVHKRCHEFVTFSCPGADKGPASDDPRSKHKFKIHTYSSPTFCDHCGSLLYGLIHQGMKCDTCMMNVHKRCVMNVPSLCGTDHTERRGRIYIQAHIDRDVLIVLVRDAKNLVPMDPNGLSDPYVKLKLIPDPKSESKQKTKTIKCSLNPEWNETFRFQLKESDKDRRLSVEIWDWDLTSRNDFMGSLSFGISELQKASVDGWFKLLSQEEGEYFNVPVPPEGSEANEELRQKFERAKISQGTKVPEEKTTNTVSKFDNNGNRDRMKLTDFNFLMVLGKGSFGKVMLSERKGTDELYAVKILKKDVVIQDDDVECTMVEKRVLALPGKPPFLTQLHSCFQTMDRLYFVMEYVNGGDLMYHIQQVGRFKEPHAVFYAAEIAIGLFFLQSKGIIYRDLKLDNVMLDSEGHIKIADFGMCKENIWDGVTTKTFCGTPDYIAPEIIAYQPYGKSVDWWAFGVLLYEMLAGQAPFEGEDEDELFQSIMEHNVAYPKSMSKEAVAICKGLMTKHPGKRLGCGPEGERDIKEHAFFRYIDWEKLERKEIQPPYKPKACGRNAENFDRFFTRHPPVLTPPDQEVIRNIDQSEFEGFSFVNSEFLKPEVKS
Text: as §1

[22] = target: T22, ROCK-I(h) (Homo sapiens, UniProt Q13464); conditions: read-out: Inhibitory rate (%)
T22 construct: purchased Eurofins Pharma Discovery Services UK Limited
Text: as §1

[23] = target: T23, CK1δ(h) (Homo sapiens, UniProt P48730); conditions: read-out: Inhibitory rate (%)
T23 construct: purchased Eurofins Pharma Discovery Services UK Limited (contract testing)
Text: as §1

[24] = target: T24, FGFR1(h) (Homo sapiens, UniProt P11362); conditions: read-out: Inhibitory rate (%)
T24 construct: purchased Eurofins Pharma Discovery Services UK Limited (contract testing)
T24 sequence (P11362 22-822): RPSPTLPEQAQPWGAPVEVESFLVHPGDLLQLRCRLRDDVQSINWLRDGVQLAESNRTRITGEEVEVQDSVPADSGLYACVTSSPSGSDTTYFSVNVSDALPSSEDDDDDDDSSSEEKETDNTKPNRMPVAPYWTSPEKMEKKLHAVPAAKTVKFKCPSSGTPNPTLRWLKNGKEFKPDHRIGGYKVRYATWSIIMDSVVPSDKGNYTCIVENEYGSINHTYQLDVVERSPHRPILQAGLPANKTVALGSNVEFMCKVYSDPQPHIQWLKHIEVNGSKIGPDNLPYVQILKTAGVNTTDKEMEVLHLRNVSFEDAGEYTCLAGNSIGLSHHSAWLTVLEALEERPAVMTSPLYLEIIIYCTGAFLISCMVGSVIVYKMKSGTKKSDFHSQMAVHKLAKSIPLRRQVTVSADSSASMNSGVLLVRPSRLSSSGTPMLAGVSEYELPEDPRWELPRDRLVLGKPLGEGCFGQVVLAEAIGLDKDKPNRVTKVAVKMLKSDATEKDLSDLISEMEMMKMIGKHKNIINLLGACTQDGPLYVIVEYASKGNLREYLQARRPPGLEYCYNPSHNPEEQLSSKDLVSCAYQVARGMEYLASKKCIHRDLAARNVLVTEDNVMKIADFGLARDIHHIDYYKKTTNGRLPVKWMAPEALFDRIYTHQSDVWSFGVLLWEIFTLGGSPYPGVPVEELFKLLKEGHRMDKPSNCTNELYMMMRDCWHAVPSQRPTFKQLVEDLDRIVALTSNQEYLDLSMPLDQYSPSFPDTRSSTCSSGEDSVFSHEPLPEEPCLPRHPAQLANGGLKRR
Text: as §1

[25] = target: T25, Blk(h) (Homo sapiens, UniProt P51451); conditions: read-out: Inhibitory rate (%)
T25 construct: purchased Eurofins Pharma Discovery Services UK Limited (contract assay service)
T25 sequence (P51451 whole entry): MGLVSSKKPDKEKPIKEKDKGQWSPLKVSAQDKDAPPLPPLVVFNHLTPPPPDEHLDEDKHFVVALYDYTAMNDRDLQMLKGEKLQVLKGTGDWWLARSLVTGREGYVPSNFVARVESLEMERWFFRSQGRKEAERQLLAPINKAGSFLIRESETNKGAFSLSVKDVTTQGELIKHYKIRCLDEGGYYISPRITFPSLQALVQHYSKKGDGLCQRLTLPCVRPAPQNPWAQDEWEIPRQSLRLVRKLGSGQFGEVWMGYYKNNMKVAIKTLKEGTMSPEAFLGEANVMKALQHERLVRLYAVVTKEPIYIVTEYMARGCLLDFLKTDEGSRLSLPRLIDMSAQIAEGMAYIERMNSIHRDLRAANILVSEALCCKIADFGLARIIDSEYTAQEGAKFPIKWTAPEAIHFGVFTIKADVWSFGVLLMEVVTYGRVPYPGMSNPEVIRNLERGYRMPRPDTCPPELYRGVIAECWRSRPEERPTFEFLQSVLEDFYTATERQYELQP
Text: as §1

[26] = target: T26, PKCγ(h) (Homo sapiens, UniProt P05129); conditions: read-out: Inhibitory rate (%)
T26 construct: purchased Eurofins Pharma Discovery Services UK Limited
Text: as §1

[27] = target: T27, MARK1(h) (Homo sapiens, UniProt Q9P0L2); conditions: read-out: Inhibitory rate (%)
T27 construct: purchased Eurofins Pharma Discovery Services UK Limited
Text: as §1

[28] = target: T28, PDGFRβ(h) (Homo sapiens, UniProt P09619); conditions: read-out: Inhibitory rate (%)
T28 construct: purchased Eurofins Pharma Discovery Services UK Limited
Text: as §1

[29] = target: T29, PDGFRα(h) (Homo sapiens, UniProt P16234); conditions: read-out: Inhibitory rate (%)
T29 construct: purchased Eurofins Pharma Discovery Services UK Limited
Text: as §1

[30] = target: T30, CSK(h) (Homo sapiens, UniProt P41240); conditions: read-out: Inhibitory rate (%)
T30 construct: purchased Eurofins Pharma Discovery Services UK Limited (contract testing)
Text: as §1

[31] = target: T31, Pim-1(h) (Homo sapiens, UniProt P11309); conditions: read-out: Inhibitory rate (%)
T31 construct: purchased Eurofins Pharma Discovery Services UK Limited
Text: as §1

[32] = target: T32, EGFR(h) (Homo sapiens, UniProt P00533); conditions: read-out: Inhibitory rate (%)
T32 construct: purchased Eurofins Pharma Discovery Services UK Limited (contract testing)
T32 sequence (P00533 25-1210): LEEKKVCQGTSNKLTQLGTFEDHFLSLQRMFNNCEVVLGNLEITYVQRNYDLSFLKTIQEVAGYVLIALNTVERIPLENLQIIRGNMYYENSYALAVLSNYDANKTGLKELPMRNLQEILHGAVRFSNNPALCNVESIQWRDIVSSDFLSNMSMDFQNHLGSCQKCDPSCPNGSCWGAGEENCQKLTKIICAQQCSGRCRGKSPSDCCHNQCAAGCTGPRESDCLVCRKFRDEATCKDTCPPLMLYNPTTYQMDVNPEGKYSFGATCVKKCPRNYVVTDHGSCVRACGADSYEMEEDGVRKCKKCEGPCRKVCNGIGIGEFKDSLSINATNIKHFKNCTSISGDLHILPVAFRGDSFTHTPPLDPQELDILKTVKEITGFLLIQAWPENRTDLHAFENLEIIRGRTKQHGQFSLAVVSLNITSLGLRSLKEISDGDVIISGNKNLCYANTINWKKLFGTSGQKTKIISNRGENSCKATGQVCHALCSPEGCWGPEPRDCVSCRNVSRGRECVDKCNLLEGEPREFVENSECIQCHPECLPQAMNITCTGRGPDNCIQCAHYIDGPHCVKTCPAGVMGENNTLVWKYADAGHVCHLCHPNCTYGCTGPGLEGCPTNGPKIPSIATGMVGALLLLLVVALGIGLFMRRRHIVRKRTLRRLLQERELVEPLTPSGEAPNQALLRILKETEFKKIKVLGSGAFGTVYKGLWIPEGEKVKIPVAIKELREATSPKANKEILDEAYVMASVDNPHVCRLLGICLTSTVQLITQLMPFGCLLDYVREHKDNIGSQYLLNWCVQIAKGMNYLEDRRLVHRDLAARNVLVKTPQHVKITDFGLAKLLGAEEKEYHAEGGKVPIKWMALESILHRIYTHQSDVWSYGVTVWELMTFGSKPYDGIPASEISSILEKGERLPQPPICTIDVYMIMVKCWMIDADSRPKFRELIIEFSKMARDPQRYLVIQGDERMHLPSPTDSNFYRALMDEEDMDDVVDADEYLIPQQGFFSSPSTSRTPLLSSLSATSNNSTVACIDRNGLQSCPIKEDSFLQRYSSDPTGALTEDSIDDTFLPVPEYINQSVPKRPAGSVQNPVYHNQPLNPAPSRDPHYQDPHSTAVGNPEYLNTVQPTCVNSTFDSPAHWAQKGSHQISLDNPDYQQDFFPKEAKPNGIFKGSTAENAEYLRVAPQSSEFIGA
Text: as §1

[33] = target: T33, Lck(h)activated (Homo sapiens, UniProt P06239); conditions: read-out: Inhibitory rate (%)
T33 construct: purchased Eurofins Pharma Discovery Services UK Limited
Text: as §1

[34] = target: T34, PDK1(h) (Homo sapiens, UniProt O15530); conditions: read-out: Inhibitory rate (%)
T34 construct: purchased Eurofins Pharma Discovery Services UK Limited
Text: as §1

[35] = target: T35, PKCι(h) (Homo sapiens, UniProt P41743); conditions: read-out: Inhibitory rate (%)
T35 construct: purchased Eurofins Pharma Discovery Services UK Limited
Text: as §1

[36] = target: T36, Fes(h) (Homo sapiens, UniProt P07332); conditions: read-out: Inhibitory rate (%)
T36 construct: purchased Eurofins Pharma Discovery Services UK Limited (contract testing)
Text: as §1

[37] = target: T37, CDK5/p35(h) (Homo sapiens, UniProt Q00535); conditions: read-out: Inhibitory rate (%)
T37 construct: purchased Eurofins Pharma Discovery Services UK Limited (contract assay service)
Text: as §1

[38] = target: T38, CDK2/cyclinE(h) (Homo sapiens, UniProt P24941); conditions: read-out: Inhibitory rate (%)
T38 construct: purchased Eurofins Pharma Discovery Services UK Limited (contract assay service)
Text: as §1

[39] = target: T39, PKCζ(h) (Homo sapiens, UniProt Q05513); conditions: read-out: Inhibitory rate (%)
T39 construct: purchased Eurofins Pharma Discovery Services UK Limited
T39 sequence (Q05513 whole entry): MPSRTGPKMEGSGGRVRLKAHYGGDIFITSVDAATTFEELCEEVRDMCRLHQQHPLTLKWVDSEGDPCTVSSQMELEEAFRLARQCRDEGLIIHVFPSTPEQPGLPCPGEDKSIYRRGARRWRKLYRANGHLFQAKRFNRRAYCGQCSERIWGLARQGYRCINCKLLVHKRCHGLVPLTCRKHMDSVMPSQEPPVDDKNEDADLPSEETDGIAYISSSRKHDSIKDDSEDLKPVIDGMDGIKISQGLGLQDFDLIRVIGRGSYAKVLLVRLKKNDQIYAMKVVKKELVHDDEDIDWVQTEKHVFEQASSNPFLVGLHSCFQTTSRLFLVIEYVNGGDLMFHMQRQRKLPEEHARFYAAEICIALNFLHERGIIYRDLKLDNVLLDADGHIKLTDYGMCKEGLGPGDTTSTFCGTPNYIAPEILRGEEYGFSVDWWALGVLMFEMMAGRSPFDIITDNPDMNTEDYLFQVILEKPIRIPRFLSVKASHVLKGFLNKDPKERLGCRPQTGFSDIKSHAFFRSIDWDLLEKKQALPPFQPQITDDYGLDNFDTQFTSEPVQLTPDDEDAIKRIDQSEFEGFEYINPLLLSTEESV
Text: as §1

inhibition at 10 µM [1]: 3%
inhibition at 10 µM [2]: -8%
Selectivity among 114 tumor-associated kinases ([3]; 10 μM, in words): selectively inhibit the activity of mTOR
inhibition at 10 µM ([3]; mTOR(h), read-out: Inhibitory rate (%)): 95%
inhibition at 10 µM [4]: -1%
inhibition at 10 µM [5]: 2%
inhibition at 10 µM [6]: -1%
inhibition at 10 µM [7]: -4%
inhibition at 10 µM [8]: 4%
inhibition at 10 µM [9]: 7%
inhibition at 10 µM [10]: 6%
inhibition at 10 µM [11]: 5%
inhibition at 10 µM [12]: 9%
inhibition at 10 µM [13]: -9%
inhibition at 10 µM [14]: -8%
inhibition at 10 µM [15]: 3%
inhibition at 10 µM [16]: -9%
inhibition at 10 µM [17]: 9%
inhibition at 10 µM [18]: 4%
inhibition at 10 µM [19]: 4%
inhibition at 10 µM [20]: 7%
inhibition at 10 µM [21]: 6%
inhibition at 10 µM [22]: -4%
inhibition at 10 µM [23]: 7%
inhibition at 10 µM [24]: 4%
inhibition at 10 µM [25]: -5%
inhibition at 10 µM [26]: 11%
inhibition at 10 µM [27]: -1%
inhibition at 10 µM [28]: -8%
inhibition at 10 µM [29]: -9%
inhibition at 10 µM [30]: -12%
inhibition at 10 µM [31]: 3%
inhibition at 10 µM [32]: 0%
inhibition at 10 µM [33]: -1%
inhibition at 10 µM [34]: -1%
inhibition at 10 µM [35]: 11%
inhibition at 10 µM [36]: -8%
inhibition at 10 µM [37]: 0%
inhibition at 10 µM [38]: 0%
inhibition at 10 µM [39]: 5%
Compound: C=C(C)n1c(=O)n(C(C)=O)c2ncc(Br)cc21 [FD162]
